According to US20230181580A1, “TREATMENT OF PROLIFERATIVE DISEASES OF THE CNS” (AUCENTRA THERAPEUTICS PTY LTD, priority 2020, published 2023):

How the values were obtained:
CDK1/B = CDK1/B (Homo sapiens, UniProt P06493); experiment: CDK kinase inhibition assay (radiometric / ADP Glo); format: biochemical
Method: (§1) Eurofins Pharma Discovery or Reaction Biology Corporation Kinase Profiler services were used to measure inhibition of CDKs and other kinases by radiometric assay (RIA). Inhibition of CDK4/Cyclin D1, CDK6/Cyclin D3 and CDK9/T1 were also determined in-house using ADP Glo Kinase assays (Promega Corporation, Madison Wis., United States of America). Briefly, the kinase reaction for CDK4/Cyclin D1 and CDK6/Cyclin D3 was performed with kinase reaction buffer ([…] Tris base pH 7.5, 20 mM MgCl2, 0.4 mM DTT), 0.1 mg/ml BSA and RB-CTF substrate (retinoblastoma protein1 C-terminal fraction). For CDK9/CyclinT1, the kinase reaction was performed with standard assay buffer and Kinase Dilution Buffer and RBER-IRStide substrate. Serial dilutions of 1:3 were prepared for test compounds for 10 concentrations (from 10 μM to 0.5 nM). The kinase reactions were started by addition of ATP, incubated for 40 min at 37° C. and then stopped by adding 10 μL of ADP Glo reagent. After incubation at room temperature (RT) in the dark for 40 min, 20 μL of kinase detection reagent was added per well and incubated for 40 min. Luminescence was measured using an EnVision Multilabel plate reader (PerkinElmer, Buckinghamshire, United Kingdom). Positive and negative controls were performed in the presence and absence of CDK kinases, respectively. Half-maximal inhibition (IC50) values were calculated using a 4-parameter logistic non-linear regression model with Graphpad prism (Version 6.0). Apparent inhibition constants (Ki) values were calculated from Km (ATP) and IC50 values for the respective kinases.

CDK2/A = CDK2/A (Homo sapiens, UniProt P24941); experiment: as above; format: biochemical
Method: as §1

CDK4/D1 = CDK4/D1 (Homo sapiens, UniProt P11802); experiment: as above; format: biochemical
Method: as §1

CDK6/D3 = CDK6/D3 (Homo sapiens, UniProt Q00534); experiment: as above; format: biochemical
Method: as §1

CDK7/H = CDK7/H (Homo sapiens, UniProt P50613); experiment: as above; format: biochemical
Method: as §1

CDK9/T1 = CDK9/T1 (Homo sapiens, UniProt P50750); experiment: as above; format: biochemical
Method: as §1

MV4-11 = experiment: Resazurin proliferation assay, leukaemia cell line; format: cell-based; settings: Homo sapiens, 72 h, read-out: Antiproliferative activity GI50 MV4-11
Description: (§2) Representative compounds from Example 1, were subjected to standard MTT (3-(4,5-dimethylthiazol-2-yl)-2,5-diphenyltetrazolium bromide) and resazurin assays on solid tumour cell lines (including GBM cell lines) and leukemia cell lines, respectively, as previously reported (Wang S et al., J Med Chem 47:1662-1675, 2004; and Diab S. et al. CheMedChem 9:962-972, 2014).

MB453 = experiment: MTT proliferation assay, breast; format: cell-based; settings: 72 h, read-out: Antiproliferative activity GI50 MB453
Description: as §2

Colo205 = experiment: MTT proliferation assay, colorectal; format: cell-based; settings: Homo sapiens, COLO 205, 72 h, read-out: Antiproliferative activity GI50 Colo205
Description: as §2

T98G = experiment: MTT proliferation assay, glioblastoma; format: cell-based; settings: Homo sapiens, 72 h, read-out: Antiproliferative activity GI50 T98G
Method: (§3) All three GBM cell lines used in this example, namely U87, U251 and T98G, were cultured in Eagle's Minimum Essential Medium (EMEM) with 10% fetal bovine serum in 75 cm^2 flasks at 37° C. and 5% CO2. All cell lines were confirmed to be mycoplasma-free prior to any experiment setup.
as §2

U251 = experiment: MTT proliferation assay, glioblastoma; format: cell-based; settings: Homo sapiens, U-251, 72 h, read-out: Antiproliferative activity GI50 U251
Method: as §3, §2

U87 = experiment: MTT proliferation assay, glioblastoma; format: cell-based; settings: Homo sapiens, U-87 MG, 72 h, read-out: Antiproliferative activity GI50 U87
Method: as §3, §2

H460 = experiment: MTT proliferation assay, lung; format: cell-based; settings: Homo sapiens, NCI-H460, 72 h, read-out: Antiproliferative activity GI50 H460
Description: as §2

A2780 = experiment: MTT proliferation assay, ovarian; format: cell-based; settings: Homo sapiens, 72 h, read-out: Antiproliferative activity GI50 A2780
Description: as §2

PANC1 = experiment: MTT proliferation assay, pancreas; format: cell-based; settings: Homo sapiens, PANC-1, 72 h, read-out: Antiproliferative activity GI50 PANC1
Description: as §2

LNCap = experiment: MTT proliferation assay, prostate; format: cell-based; settings: Homo sapiens, 72 h, read-out: Antiproliferative activity GI50 LNCap
Description: as §2

M229 = experiment: MTT proliferation assay, melanoma; format: cell-based; settings: 72 h, read-out: Antiproliferative activity GI50 M229
Description: as §2

U87 GBM cells [1] = experiment: Subcutaneous U87 GBM xenograft, single agents; format: in vivo
Description: (§4) Compound 1 and compound 2 were also investigated for in vivo antitumour activity in subcutaneous xenograft models. Briefly, U87 GBM cells were harvested and resuspended in a 1:1 mixture of serum-free media and matrigel, and 5×10^6 cells injected subcutaneously into the rear flank of 5-6-week-old CD1 nu/nu female mice. When the mean tumour volume reached 150-200 mm^3, animals were randomised to treatment groups (n=10 per group) and treated orally with vehicle (0.5% carboxymethyl cellulose in water), compound 1 or compound 2 daily for 21 days with the doses shown in FIGS. 5A and 5B. Mice were observed daily for signs of toxicity and weight loss, and tumour volume measured every other day.

U87 xenografted mice = experiment: Subcutaneous U87 xenograft, compound 2 and TMZ study; format: in vivo; settings: 25 mg/kg PO daily, single agent and with TMZ
Description: as §4
In another study, U87 xenografted mice (n=8 per group) were treated with: (1) vehicle, (2) compound 2 (25 mg/kg, PO, daily), (3 and 4) TMZ (5 mg/kg or 50 mg/kg, PO, 5 day/week), (5) pre-treatment with compound 2 (25 mg/kg, PO, daily ×10), followed by TMZ (5 mg/kg, PO, 5 day/week ×2), (6) pre-treatment with TMZ (5 mg/kg, PO, 5 day/week ×2) followed by compound 2 (25 mg/kg, PO, daily ×10), and (7) co-treatment with compound 2 and TMZ, respectively. All treatment groups were completed by day 21, which were followed by a 7-day drug holiday before the second cycle of treatment started from day 29 (FIG. 5B).

U87 GBM cells [2] = experiment: Orthotopic U87 GBM xenograft; format: in vivo, NSG mice
Method: In vivo anti-tumour efficacy of compound 1 and compound 2 was also investigated in GBM orthotopic mouse xenograft models. For example, compound 2 was administered orally once daily for 21 days to NSG mice (n=8) (The Jackson Laboratory, Ben Harbor, Me., United States of America) orthotopically engrafted with the U87 GBM cells per each treatment cohort. TMZ was given orally once daily for 5 days and was used as a positive control. The disease burden was measured by a non-invasive bioluminescent whole-body imaging technique.

Chain of CDK6/D3 (Q00534 whole entry): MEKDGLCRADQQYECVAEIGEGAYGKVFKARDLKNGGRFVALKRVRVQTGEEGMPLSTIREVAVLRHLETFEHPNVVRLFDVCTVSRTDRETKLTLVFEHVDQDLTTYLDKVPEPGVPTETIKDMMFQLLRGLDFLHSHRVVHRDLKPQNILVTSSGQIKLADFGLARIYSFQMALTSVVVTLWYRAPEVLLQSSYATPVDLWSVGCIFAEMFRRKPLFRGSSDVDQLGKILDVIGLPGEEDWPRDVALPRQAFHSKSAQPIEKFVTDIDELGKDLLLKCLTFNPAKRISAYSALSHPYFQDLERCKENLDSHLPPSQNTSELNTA
Chain of CDK6/D3 (P30281 whole entry partner): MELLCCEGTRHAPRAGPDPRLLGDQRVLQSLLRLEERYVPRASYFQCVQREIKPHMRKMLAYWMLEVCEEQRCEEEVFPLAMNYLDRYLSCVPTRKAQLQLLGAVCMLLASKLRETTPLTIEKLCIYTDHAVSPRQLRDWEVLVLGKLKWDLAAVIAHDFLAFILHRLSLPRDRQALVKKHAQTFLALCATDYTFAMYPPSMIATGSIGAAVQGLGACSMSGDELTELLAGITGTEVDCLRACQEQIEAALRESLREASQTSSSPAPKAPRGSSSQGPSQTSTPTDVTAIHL
Chain of CDK4/D1 (P11802 whole entry): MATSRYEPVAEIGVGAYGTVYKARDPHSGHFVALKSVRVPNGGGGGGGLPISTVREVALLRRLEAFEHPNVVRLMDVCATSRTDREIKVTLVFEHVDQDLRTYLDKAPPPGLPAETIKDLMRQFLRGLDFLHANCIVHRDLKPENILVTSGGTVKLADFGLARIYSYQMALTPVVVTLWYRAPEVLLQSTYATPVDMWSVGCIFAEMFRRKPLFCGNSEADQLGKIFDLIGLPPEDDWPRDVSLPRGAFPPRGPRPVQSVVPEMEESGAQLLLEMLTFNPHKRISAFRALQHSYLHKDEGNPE
Chain of CDK4/D1 (P24385 whole entry partner): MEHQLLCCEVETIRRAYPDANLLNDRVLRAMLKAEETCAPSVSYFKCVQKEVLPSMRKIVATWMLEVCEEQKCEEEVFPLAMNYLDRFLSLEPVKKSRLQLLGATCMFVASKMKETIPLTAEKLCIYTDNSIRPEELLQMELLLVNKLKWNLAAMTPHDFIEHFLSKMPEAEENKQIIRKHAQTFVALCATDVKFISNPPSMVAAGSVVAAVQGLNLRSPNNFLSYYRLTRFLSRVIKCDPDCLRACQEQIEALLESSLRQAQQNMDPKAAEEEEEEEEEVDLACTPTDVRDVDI
Chain of CDK1/B (P06493 whole entry): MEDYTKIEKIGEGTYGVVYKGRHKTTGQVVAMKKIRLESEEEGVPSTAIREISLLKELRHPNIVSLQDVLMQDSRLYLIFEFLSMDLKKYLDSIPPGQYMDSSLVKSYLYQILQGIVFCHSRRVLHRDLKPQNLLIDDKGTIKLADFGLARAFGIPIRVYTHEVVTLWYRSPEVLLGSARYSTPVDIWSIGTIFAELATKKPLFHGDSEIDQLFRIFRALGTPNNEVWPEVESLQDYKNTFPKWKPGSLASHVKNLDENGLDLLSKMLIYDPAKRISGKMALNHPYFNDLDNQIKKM
Chain of CDK1/B (P14635 whole entry partner): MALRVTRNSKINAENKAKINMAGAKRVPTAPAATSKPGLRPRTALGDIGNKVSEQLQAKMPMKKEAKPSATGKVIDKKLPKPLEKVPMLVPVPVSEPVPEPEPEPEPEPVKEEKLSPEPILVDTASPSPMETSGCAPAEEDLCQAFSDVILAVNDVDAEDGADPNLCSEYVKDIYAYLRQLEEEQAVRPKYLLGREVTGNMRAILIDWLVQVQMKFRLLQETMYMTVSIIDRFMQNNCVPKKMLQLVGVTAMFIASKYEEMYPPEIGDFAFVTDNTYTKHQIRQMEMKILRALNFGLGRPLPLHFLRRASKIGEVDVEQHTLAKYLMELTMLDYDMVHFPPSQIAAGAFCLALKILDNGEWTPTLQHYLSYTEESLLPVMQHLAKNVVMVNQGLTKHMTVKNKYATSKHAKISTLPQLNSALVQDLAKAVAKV
Chain of CDK9/T1 (P50750 whole entry): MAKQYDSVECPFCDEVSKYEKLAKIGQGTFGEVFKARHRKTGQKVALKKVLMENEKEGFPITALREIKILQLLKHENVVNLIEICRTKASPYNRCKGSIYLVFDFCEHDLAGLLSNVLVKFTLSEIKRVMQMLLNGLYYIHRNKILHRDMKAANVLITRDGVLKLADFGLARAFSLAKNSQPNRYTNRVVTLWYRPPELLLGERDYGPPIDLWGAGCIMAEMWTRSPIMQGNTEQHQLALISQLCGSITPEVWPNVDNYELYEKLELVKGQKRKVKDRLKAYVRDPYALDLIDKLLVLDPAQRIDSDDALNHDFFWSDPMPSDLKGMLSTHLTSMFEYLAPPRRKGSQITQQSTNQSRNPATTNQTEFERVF
Chain of CDK9/T1 (O60563 whole entry partner): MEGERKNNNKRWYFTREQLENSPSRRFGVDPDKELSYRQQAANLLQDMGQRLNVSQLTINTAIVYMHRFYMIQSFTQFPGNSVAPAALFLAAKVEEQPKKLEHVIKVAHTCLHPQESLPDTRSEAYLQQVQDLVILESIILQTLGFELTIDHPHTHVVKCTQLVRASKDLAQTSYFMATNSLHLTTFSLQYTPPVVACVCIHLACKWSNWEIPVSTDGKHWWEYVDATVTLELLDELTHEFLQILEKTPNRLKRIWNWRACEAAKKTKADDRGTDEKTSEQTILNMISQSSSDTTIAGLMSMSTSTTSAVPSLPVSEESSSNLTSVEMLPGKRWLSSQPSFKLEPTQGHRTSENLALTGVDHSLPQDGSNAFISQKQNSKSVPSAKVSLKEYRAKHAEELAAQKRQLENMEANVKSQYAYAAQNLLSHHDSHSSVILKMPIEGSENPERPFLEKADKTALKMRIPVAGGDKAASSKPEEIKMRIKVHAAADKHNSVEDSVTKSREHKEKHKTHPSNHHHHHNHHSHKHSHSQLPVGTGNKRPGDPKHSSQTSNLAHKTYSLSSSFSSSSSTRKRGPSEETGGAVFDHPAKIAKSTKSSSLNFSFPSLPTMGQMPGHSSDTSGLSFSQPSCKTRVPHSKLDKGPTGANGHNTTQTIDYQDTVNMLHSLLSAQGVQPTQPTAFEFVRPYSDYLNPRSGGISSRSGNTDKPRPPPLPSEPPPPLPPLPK
Chain of CDK7/H (P50613 whole entry): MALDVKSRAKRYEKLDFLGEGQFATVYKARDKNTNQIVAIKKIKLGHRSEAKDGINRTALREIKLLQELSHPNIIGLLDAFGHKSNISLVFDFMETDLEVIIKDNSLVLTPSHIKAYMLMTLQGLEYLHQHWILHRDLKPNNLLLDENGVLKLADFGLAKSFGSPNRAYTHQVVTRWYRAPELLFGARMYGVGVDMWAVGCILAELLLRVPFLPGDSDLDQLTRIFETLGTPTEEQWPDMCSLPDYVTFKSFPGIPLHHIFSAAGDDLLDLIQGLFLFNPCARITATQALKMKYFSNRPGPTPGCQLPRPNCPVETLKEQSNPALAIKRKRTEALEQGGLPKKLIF
Chain of CDK7/H (P51946 whole entry partner): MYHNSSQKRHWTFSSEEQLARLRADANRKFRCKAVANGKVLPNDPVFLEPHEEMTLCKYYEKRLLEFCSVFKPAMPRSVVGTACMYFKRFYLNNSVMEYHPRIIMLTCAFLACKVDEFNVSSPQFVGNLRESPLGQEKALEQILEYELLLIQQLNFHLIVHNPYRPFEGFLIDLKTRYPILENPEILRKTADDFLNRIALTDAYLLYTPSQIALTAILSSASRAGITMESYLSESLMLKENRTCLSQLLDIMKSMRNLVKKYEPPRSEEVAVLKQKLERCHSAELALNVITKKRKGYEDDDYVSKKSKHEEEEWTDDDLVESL
Chain of CDK7/H (P51948 whole entry partner): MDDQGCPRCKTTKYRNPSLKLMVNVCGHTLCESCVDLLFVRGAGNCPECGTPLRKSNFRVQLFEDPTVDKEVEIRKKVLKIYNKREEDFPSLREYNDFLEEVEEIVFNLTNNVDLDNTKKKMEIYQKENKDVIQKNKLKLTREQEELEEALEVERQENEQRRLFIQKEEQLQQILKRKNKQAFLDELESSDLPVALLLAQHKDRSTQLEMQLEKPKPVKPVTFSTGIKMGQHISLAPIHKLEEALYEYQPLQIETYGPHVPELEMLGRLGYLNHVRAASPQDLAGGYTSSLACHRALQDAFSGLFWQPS

SMILES | Ki (CDK1/B) [nM] | Ki (CDK2/A) [nM] | Ki (CDK4/D1) [nM] | Ki (CDK6/D3) [nM] | Ki (CDK7/H) [nM] | Ki (CDK9/T1) [nM] | GI50 (MV4-11) [nM] | GI50 (MB453) [nM] | other results
CNc1nc(C)c(-c2nc(Nc3ccc(N4CCC(N)CC4)cn3)ncc2F)s1 [Compound 7, 5-(2-((5-(4-aminopiperidin-1-yl)pyridin-2-yl)amino)-5-fluoropyrimidin-4-yl)-N,4-dimethylthiazol-2-amine] | > 1000 | 206 | 3 | 32 | > 1000 | > 1000 | 80 | 360 | 
CCN1CCN(Cc2ccc(Nc3nccc(-c4sc(NC5CCCC5)nc4C)n3)nc2)CC1 [Compound 6, N-cyclopentyl-5-(2-((5-((4-ethylpiperazin-1-yl)methyl)pyridin-2-yl)amino)pyrimidin-4-yl)-4-methylthiazol-2-amine] | > 1000 | 416 | 6 | 9 | 630 | > 1000 | 20 | 70 | GI50 (Colo205): 4380 nM
Cc1nc(NC2CCCC2)sc1-c1nc(Nc2ccc(N3CCOCC3)cn2)ncc1F [Compound 9, N-cyclopentyl-5-(5-fluoro-2-((5-morpholinopyridin-2-yl)amino)pyrimidin-4-yl)-4-methylthiazol-2-amine] | > 1000 | 104 | 6 | 20 | > 1000 | > 1000 | 290 | 1450 | 
CNc1nc(C)c(-c2nc(Nc3ccc(N4CCN(C(C)=O)CC4)cn3)ncc2C#N)s1 [Compound 5, 2-((5-(4-acetylpiperazin-1-yl)pyridin-2-yl)amino)-4-(4-methyl-2-(methylamino)thiazol-5-yl)pyrimidine-5-carbonitrile] | > 1000 | > 1000 | 4 | 30 | > 1000 | > 1000 | 170 | 810 | 
Cc1nc(NC2CCCC2)sc1-c1ccnc(Nc2ccc(N3CCC(N)CC3)cn2)n1 [Compound 8, 5-(2-((5-(4-aminopiperidin-1-yl)pyridin-2-yl)amino)pyrimidin-4-yl)-N-cyclopentyl-4-methylthiazol-2-amine] | > 1000 | 278 | 1 | 8 | 282 | 508 | 30 | 100 | 
Cc1nc(NC2CCCC2)sc1-c1ccnc(Nc2ccc(N3CCNCC3)cn2)n1 [Compound 3, N-cyclopentyl-4-methyl-5-(2-((5-(piperazin-1-yl)pyridin-2-yl)amino)pyrimidin-4-yl)thiazol-2-amine] | > 1000 | > 1000 | 1 | 34 | > 1000 | 220 | 20 | 70 | 
CCN1CCN(Cc2ccc(Nc3ncc(F)c(-c4sc(NC5CCCC5)nc4C)n3)nc2)CC1 [Compound 2, N-cyclopentyl-5-(2-((5-((4-ethylpiperazin-1-yl)methyl)pyridin-2-yl)amino)-5-fluoropyrimidin-4-yl)-4-methylthiazol-2-amine] | > 1000 | 620 | 0.2 | 3 |  | > 1000 | 10 | 620 | GI50 (Colo205): 1550 nM; GI50 (T98G): 4180 nM; GI50 (U251): 5090 nM; GI50 (U87): 2170 nM; GI50 (H460): 410 nM; GI50 (A2780): 40 nM; GI50 (PANC1): 1210 nM; GI50 (LNCap): 280 nM; GI50 (M229): 830 nM; T/C (U87 GBM cells [1]; day 21, oral daily for 21 days, vs vehicle, p<0.001): 6%; tumour growth compared to vehicle treatment (U87 GBM cells [1]; oral daily for 21 days): markedly reduced tumour growth; toxicity (U87 GBM cells [1]; oral daily for 21 days, observed daily for signs of toxicity and weight loss): without any overt toxicity; toxicity (U87 xenografted mice): without any overt toxicity; anti-tumour efficacy (U87 xenografted mice; p<0.001 vs vehicle): significant anti-tumour efficacy both as a single agent and in combination with TMZ; inhibition in tumour growth (TGI) (U87 GBM cells [2]; day 21, oral once daily for 21 days, vs vehicle, p<0.001): 81.4%; increase in life span ratio (ILS) (U87 GBM cells [2]; vs vehicle control, ILS=(DaysT−DaysC)/DaysC): 154.8%
CCN1CCN(c2ccc(Nc3nccc(-c4sc(NC5CCCC5)nc4C)n3)nc2)CC1 [Compound 4, N-cyclopentyl-5-(2-((5-(4-ethylpiperazin-1-yl)pyridin-2-yl)amino)pyrimidin-4-yl)-4-methylthiazol-2-amine] | > 1000 | 355 | 2 | 11 |  | 141 | 10 | 290 | 
